Strand notation (5' to 3'): a small letter for the sugar, then the base; units joined by * are phosphorothioate-linked, units joined directly phosphodiester-linked; [ ] holds rarer units or linkages, { } end groups; capitals alone tell only the bases. k = constrained ethyl (cEt); [5mC] = 5-methylcytosine; d = 2'-deoxy (DNA)
Tested on: Yap1 mRNA
Assay: Dose-dependent inhibition of human Yap1 in A-431 cells (Example 7, 10,000 cells per well, RTS36584)
Format: cell-based
Details: free uptake
Procedure: Modified oligonucleotides described in the studies above were tested at various doses in A-431 cells. Cultured A-431 cells at a density of 10,000 cells per well were treated using free uptake with modified oligonucleotides diluted to concentrations described in the tables below. After approximately 48 hours, Yap1 mRNA levels were measured as previously described using the Human Yap1 primer-probe set RTS36584. Yap1 mRNA levels were normalized to total RNA content, as measured by RIBOGREEN®. Results are presented in the tables below as percent control of the amount of Yap1 mRNA relative to untreated control cells (% UTC). IC50s were calculated using a linear regression on a log/linear plot of the data in excel.

[1] = Table 57, 15.6 nM, A-431 cells 10,000 cells per well, 48 hours
[2] = Table 57, 62.5 nM, A-431 cells 10,000 cells per well, 48 hours
[3] = Table 57, 4000.00 nM, A-431 cells 10,000 cells per well, 48 hours
[4] = Table 57, A-431 cells 10,000 cells per well
[5] = Table 61, 15.6 nM, A-431 cells 10,000 cells per well, 48 hours
[6] = Table 61, 62.5 nM, A-431 cells 10,000 cells per well, 48 hours
[7] = Table 61, 4000.00 nM, A-431 cells 10,000 cells per well, 48 hours
[8] = Table 61, A-431 cells 10,000 cells per well
[9] = Table 58, 15.6 nM, A-431 cells 10,000 cells per well, 48 hours
[10] = Table 58, 62.5 nM, A-431 cells 10,000 cells per well, 48 hours
[11] = Table 58, 4000.00 nM, A-431 cells 10,000 cells per well, 48 hours
[12] = Table 58, A-431 cells 10,000 cells per well
[13] = 15.6 nM, A-431 cells, 10,000 cells per well, approximately 48 hours
[14] = 62.5 nM, A-431 cells, 10,000 cells per well, approximately 48 hours
[15] = 4000.00 nM, A-431 cells, 10,000 cells per well, approximately 48 hours
[16] = A-431 cells, approximately 48 hours, linear regression on log/linear plot

958556 (k[5mC]*kA*kA*d[5mC]*d[5mC]*dA*dA*d[5mC]*dT*dA*dT*dT*dA*k[5mC]*kT*kT; antisense) [compound 958556]
Yap1 mRNA, % UTC [1]: 103 % UTC
Yap1 mRNA, % UTC [2]: 95 % UTC
Yap1 mRNA, % UTC [3]: 34 % UTC
IC50 [4]: 500 nM

958484 (kG*k[5mC]*kA*dG*d[5mC]*dA*dA*dT*dG*dG*dA*d[5mC]*dA*kA*kG*kG; antisense) [compound 958484]
Yap1 mRNA, % UTC [5]: 77 % UTC
Yap1 mRNA, % UTC [6]: 38 % UTC
Yap1 mRNA, % UTC [7]: 4 % UTC
IC50 [8]: 50 nM

958477 (kA*kT*kT*dT*d[5mC]*d[5mC]*dG*dG*dT*dG*d[5mC]*dA*dT*kG*kT*kG; antisense) [compound 958477]
Yap1 mRNA, % UTC [9]: 83 % UTC
Yap1 mRNA, % UTC [10]: 37 % UTC
Yap1 mRNA, % UTC [11]: 6 % UTC
IC50 [12]: 100 nM

958466 (kG*kT*k[5mC]*dA*dT*dT*dA*dA*dG*dG*dA*dT*dG*kT*k[5mC]*kA; antisense) [compound 958466]
Yap1 mRNA, % UTC [1]: 84 % UTC
Yap1 mRNA, % UTC [2]: 81 % UTC
Yap1 mRNA, % UTC [3]: 30 % UTC
IC50 [4]: 300 nM

958533 (kG*k[5mC]*kA*dT*dA*dG*dA*dA*dG*dT*dA*dG*dG*kA*kG*k[5mC]; antisense) [compound 958533]
Yap1 mRNA, % UTC (Table 59, 15.6 nM, A-431 cells 10,000 cells per well, 48 hours): 99 % UTC
Yap1 mRNA, % UTC (Table 59, 62.5 nM, A-431 cells 10,000 cells per well, 48 hours): 61 % UTC
Yap1 mRNA, % UTC (Table 59, 4000.00 nM, A-431 cells 10,000 cells per well, 48 hours): 12 % UTC
IC50 (Table 59, A-431 cells 10,000 cells per well): 100 nM

958594 (k[5mC]*kT*k[5mC]*dT*dT*dA*dG*dG*dT*d[5mC]*dT*d[5mC]*d[5mC]*kT*kT*k[5mC]; antisense) [compound 958594]
Yap1 mRNA, % UTC [13]: 91 % UTC
Yap1 mRNA, % UTC [14]: 70 % UTC
Yap1 mRNA, % UTC [15]: 20 % UTC
IC50 [16]: 200 nM

958532 (kG*kA*kA*dG*dT*dA*dG*dG*dA*dG*d[5mC]*dA*dA*kG*kT*k[5mC]; antisense) [compound 958532]
Yap1 mRNA, % UTC [9]: 88 % UTC
Yap1 mRNA, % UTC [10]: 44 % UTC
Yap1 mRNA, % UTC [11]: 7 % UTC
IC50 [12]: 100 nM

958605 (k[5mC]*kT*k[5mC]*dA*dG*dA*dT*dG*dT*dA*d[5mC]*d[5mC]*dA*kA*k[5mC]*kG; antisense) [compound 958605]
Yap1 mRNA, % UTC [13]: 76 % UTC
Yap1 mRNA, % UTC [14]: 63 % UTC
Yap1 mRNA, % UTC [15]: 9 % UTC
IC50 [16]: 100 nM

958614 (kG*kT*k[5mC]*dT*dT*dG*dT*dT*d[5mC]*dT*dT*dA*dT*kG*kG*kT; antisense) [compound 958614]
Yap1 mRNA, % UTC [5]: 84 % UTC
Yap1 mRNA, % UTC [6]: 49 % UTC
Yap1 mRNA, % UTC [7]: 13 % UTC
IC50 [8]: 100 nM

958558 (kT*kT*k[5mC]*dA*d[5mC]*dA*dA*d[5mC]*d[5mC]*dA*dA*d[5mC]*dT*kA*kT*kT; antisense) [compound 958558]
Yap1 mRNA, % UTC (Table 60, 15.6 nM, A-431 cells 10,000 cells per well, 48 hours): 84 % UTC
Yap1 mRNA, % UTC (Table 60, 62.5 nM, A-431 cells 10,000 cells per well, 48 hours): 83 % UTC
Yap1 mRNA, % UTC (Table 60, 4000.00 nM, A-431 cells 10,000 cells per well, 48 hours): 35 % UTC
IC50 (Table 60, A-431 cells 10,000 cells per well): 500 nM

958565 (kT*kT*kG*dA*dG*d[5mC]*dA*d[5mC]*dT*dG*dA*dA*dA*kG*kT*kA; antisense) [compound 958565]
Yap1 mRNA, % UTC [13]: 83 % UTC
Yap1 mRNA, % UTC [14]: 62 % UTC
Yap1 mRNA, % UTC [15]: 13 % UTC
IC50 [16]: 100 nM

958686 (k[5mC]*kG*k[5mC]*dA*dA*dT*dA*dT*dA*dG*dT*d[5mC]*dT*kA*kT*kA; antisense) [compound 958686]
Yap1 mRNA, % UTC [1]: 75 % UTC
Yap1 mRNA, % UTC [2]: 69 % UTC
Yap1 mRNA, % UTC [3]: 18 % UTC
IC50 [4]: 100 nM

958795 (kT*kA*kT*dT*d[5mC]*d[5mC]*dG*d[5mC]*dA*dT*dT*dG*d[5mC]*k[5mC]*kT*kA; antisense) [compound 958795]
Yap1 mRNA, % UTC [13]: 90 % UTC
Yap1 mRNA, % UTC [14]: 69 % UTC
Yap1 mRNA, % UTC [15]: 20 % UTC
IC50 [16]: 200 nM

958370 (antisense k[5mC]*kT*kT*dT*dA*dT*d[5mC]*dT*dA*dG*d[5mC]*dT*dT*kG*kG*kT) [compound 958370]
Yap1 mRNA, % UTC (Table 56, 15.6 nM, A-431 cells 10,000 cells per well, 48 hours): 98 % UTC
Yap1 mRNA, % UTC (Table 56, 62.5 nM, A-431 cells 10,000 cells per well, 48 hours): 74 % UTC
Yap1 mRNA, % UTC (Table 56, 4000.00 nM, A-431 cells 10,000 cells per well, 48 hours): 22 % UTC
IC50 (Table 56, A-431 cells 10,000 cells per well): 200 nM

Reference: patent US11214803B2, “Modulators of YAP1 expression” (Ionis Pharmaceuticals, Inc., priority 2019, dated 2022)
